Assay results reported in patent publication US8518883B2, “Method of reducing deleterious effects of ischemia by administration of a thrombopoietin receptor ligand” (MCW Research Foundation, Inc., priority 2006, dated 2013).

Test system: in vitro rat hearts
Experiment: Isolated perfused (Langendorff) rat heart, 25 min global ischemia and 180 min reperfusion: hemodynamics, infarct size, recovery of LVDP
Settings: for Effect on the cardioprotective effect of Tpo (infarct size, LVDP recovery): Glibenclamide 3 μM 15 min alone, then with Tpo 1.0 ng/ml 15 min prior to ischemia; for Effect on cardioprotection, drug alone: no Tpo
Protocol: The study was directed to determining whether Tpo (0.01-10.0 ng/ml) confers immediate cardioprotection in rat hearts and the contribution of potassium channels to the underlying mechanism. Hearts from normoxic 8 week old Sprague Dawley rats (n=8/group) were isolated and perfused in the Langendorff mode. Hemodynamic function was recorded under steady-state conditions prior to 25 minutes global no flow ischemia and 180 minutes reperfusion.
Isolated heart perfusion. Isolated rat hearts were perfused with bicarbonate buffer at constant pressure in a retrograde manner and instrumented as described in Baker, et al., Am. J. Physiol. Heart Circulat. Physiol. 278:1395-1400, 2000 potassium channel blockers were added to this perfusate as needed. A 3-way tap, located immediately above the site of cannulation, allowed the entire perfusate to be diverted away from the heart to produce global, no-flow ischemia. Reperfusion was achieved by repositioning of the tap to allow perfusate to be delivered to the heart. Left ventricular function was monitored continuously throughout each experiment as described in Baker, et al., supra, 2000. End-diastolic pressure was initially set to 3 mmHg for 2 minutes. The balloon was then progressively inflated with a microsyringe to set end-diastolic pressures to 8 mmHg for the left ventricle, with developed pressure and heart rate recorded during steady-state conditions. Coronary flow rate was measured throughout the experiment by timed collections of the coronary effluent from the right side of the heart into a graduated cylinder. Coronary flow rate was expressed as milliliters per minute per gram wet weight.
Resistance to myocardial ischemia. Hearts from adult rats were perfused with bicarbonate buffer, and biventricular function was monitored continuously throughout each experiment as described in Baker, et al., supra, 2000. For concentration response studies, hearts were then perfused with Tpo (0.01-10.0 ng/ml) for 15 minutes prior to 25 minutes ischemia and 180 minutes reperfusion. For mechanism studies with potassium channel blockers, hearts were perfused with drugs for 15 minutes alone followed by 15 minutes in combination with Tpo prior to ischemia. Hearts perfused with potassium channel blockers alone in the absence of Tpo for 30 minutes prior to ischemia served as untreated controls for these studies. Recovery of post-ischemic left ventricular developed pressure was expressed as a percentage of its pre-drug, pre-ischemic value.
Assessment of ventricular function. Left ventricular function was monitored continuously throughout each experiment as described in Baker, et al., supra, 2000. Recovery of left ventricular pressure following ischemia was used to assess resistance to ischemia.
Measurement of infarct size/area at risk at 3 hours reperfusion were used to assess resistance to myocardial ischemia. For characterization of infarction size, hearts were perfused with 10 ml bicarbonate buffer containing triphenyltetrazolium chloride (SIGMA) at 37° C.
The heart was sectioned in 2 mm segments from apex to atrio-ventricular groove in a transverse fashion. Each segment was recorded and placed in formalin. After twenty-four (24) hours, the specimen was digitally photographed in a camera mount to normalize specimen-to-lens distance. Each photograph was then appended to Adobe Photoshop (Adobe™) to measure pixel density of infarcted versus non-infarcted areas. The percentage of infarction of each slide was expressed as a percentage of the entire area of the heart.
Hearts from male Sprague Dawley rats at 8 weeks of age were isolated and perfused with Tpo at 0.01, 0.1, 1.0, and 10 ng/ml for 15 minutes prior to 25 minutes global ischemia and 180 minutes reperfusion (FIG. 2). Tpo (1.0 ng/ml) reduced coronary flow rate prior to ischemia from 6±1 ml/min/g to 5±1 ml/min/g, increased left ventricular developed pressure from 119±15 mmHg to 151±19 mmHg and decreased heart rate from 240±34 beats/minute to 228±17 beats/minute. […]

SMILES	Effect on the cardioprotective effect of Tpo (infarct size, LVDP recovery)	Effect on the cardioprotective effect of Tpo (infarct size, LVDP recovery) (listed as glibenclamide)	Effect on cardioprotection, drug alone (Glibenclamide 3 μM alone)	Effect on cardioprotection, drug alone (Wortmannin 100 nM alone)
COc1ccc(Cl)cc1C(=O)NCCc1ccc(S(=O)(=O)NC(=O)NC2CCCCC2)cc1 [Glibenclamide, reference compound]	completely abolished	completely prevented	no effect	
COC[C@H]1OC(=O)c2coc3c2[C@@]1(C)C1=C(C3=O)[C@@H]2CCC(=O)[C@@]2(C)C[C@H]1OC(C)=O [Wortmannin, reference compound]				no effect
